From patent publication US20050164924A1, “Method and composition for treating skin wounds with epidermal growth factor” (priority 2002, published 2005)
Values joined by “and” are separate entries in the source; they are usually repeats but may differ in a detail not shown here. Identical values can stand only once.

Experiments:
diabetic foot ulcer = experiment: Randomized double-blind controlled trial of hEGF in diabetic foot ulcer healing; assay type: in vivo, human; details: for 100% Healed Time, mean survival time: Kaplan Meier; for healing rate by the end of 12 weeks: topical daily
Experimental: A randomized double-blind controlled trial was conducted to study the efficacy of human epidermal growth factor hEGF) in promoting diabetic foot ulcer healing with 88 patients. Predetermined criteria were used for patient selection, they were; ulcer grade 1-2, ulcer located below the ankle, adequate perfusion as indicated by an ankle brachial-index of ≧0.7. Patients were excluded if: sugar control was very poor (HbAlc≧12%), or had severe grade ulcers (≧3). Initial assessment and standard wound care and debridement was given as in an ordinary diabetic foot clinic. The patients were reviewed two weeks later. In the second consultation, patients whose ulcer healed more than 25% with conventional foot ulcer care were excluded. Informed consent was obtained from the remaining patients and randomization was done by drawing envelopes, although the patients were blind to the concentrations of hEGF during the experiments. The final candidates were randomly assigned into three groups: • 1. Group 1 were treated with Acetovegin® 5% cream alone, which has the following compositions as indicated in the package of the cream: 1 g of cream contains 2 mg (corresponding to dry mass) of deproteinized hemoderivative of calf blood, and 0.2 mg of benzalkonium chloride. There was no particular reason in choosing Acetovegin® 5% cream as the control other than this cream was available at the clinic where the experiments were conducted. • 2. Group 2 patients were treated with Acetovegin® 5% cream (with composition as stated above) plus 0.02% (g/g) hEGF. • 3. Group 3 patients were treated with Acetovegin® 5% cream (with composition as stated above) plus 0.04% (g/g) hEGF. All patients were followed up on a biweekly bass for wound care and debridement and trimming of keratosis. Antibiotic would be given if it was infected as indicated by purulent discharge or by positive bacterial culture. Photos of the wound's size were being taken for computer measurement and comparing with a reference area having a known size. Local application of study cream was applied and covered with sterile gauze. Patients were instructed to have daily normal saline dressing and local application of cream in the government out-patient-clinic or community nurse would be asked to have home visit for those with ambulatory problem. Wound parameters, such as exudates sign of infection granulation tissue and eschar were documented in each visit and complete healing was defined as full epithelialization of the wound with absence of discharge. Analysis was based on intention to treat and Kaplan Meier survival analysis was employed to compare the healing rate between different groups. One way ANOVA was used for clinical parameters analysis. If more than one wound was present in one patient the total areas of the ulcers was taken together and treated as one single wound. Of the 30 patients that suffered from unhealed ulcers they were randomly assigned into 3 groups as stated above: Group-1 (9/30), the control, was treated with Acetovegin® 5% cream alone; Group-2 (9/30) was treated with Acetovegin® 5% cream plus 0.02% (g/g) hEGF; Group-3, (14/32) Acetovegin® 5% cream plus 0.04% (g/g) hEGF. The end point of a treatment was defined as complete closure of the wound, whereas failure to heal was defined as incomplete healing after 12 weeks of treatment. The experiment in Example 1 was repeated using Acetovegin® 5% cream plus 0.03% (g/g) hEGF. 8 patients, named Group-4, were treated.

diabetes ulcers = experiment: Individuals suffering from prolonged diabetes ulcers treated with 0.04% hEGF composition; assay type: in vivo, human; details: 0.04% (g/g) hEGF
Experimental: Three patients suffering from prolonged diabetes ulcers were treated with the composition of this invention containing 0.04% (g/g) hEGF. The following results were observed, with all of the patients were healed after as short as four weeks treatment: […]

[1] = system: right facial non-healing ulcer; experiment: Individual suffering from prolonged unhealed surgical wound; assay type: in vivo, human; details: Patient D
Source text: Patient D was admitted for investigation of right facial non-healing ulcer after extraction of right mandibular molars and excision of facial fistula eleven months ago. […] There was sloughing of the right mandibular alveolus and the wound was tender. […] However, “definitively negative finding for malignancy nor basal cell carcinoma, quite normal looking oral epithelial mucosa” was reported by a pathologist. […] Patient was reviewed after two weeks of hEGF (0.04% (g/g)) local application. The composition is the same as that used in the above Group-3 patients. The right facial wound was healing, base of the wound looked fleshy with no discharge. The wound area decreased in size by about 30%.

bedsore = experiment: Individual suffering from bedsore; assay type: in vivo, human; details: 0.04% (g/g) EGF daily with normal saline dressing, after three-month treatment
Experimental: Patient B was bedridden at aged home for several years. […] They were referred to medical because the wound got worse with central grangrene after a two-month treatment.
They were then treated with Hibitane dressing for two weeks then normal saline dressing with the composition of this invention containing 0.04% (g/g) EGF daily.

burns = experiment: Treating burns with EGF; assay type: in vivo; details: 0.001% (g) of EGF
corneal and burn wounds = details: EGF 10 μg/ml; cited from earlier work
venous stasis ulcers = details: EGF 10 μg/ml; cited from earlier work
[2] = Patient A, after 2 weeks treatment
[3] = Patient A, after 3 weeks treatment
[4] = Patient B, after 3 weeks treatment
[5] = Patient B, after 5 weeks treatment
[6] = Patient B, after 9 weeks treatment
[7] = Patient C, after 4 weeks treatment
[8] = Patient C, after 6 weeks treatment

human epidermal growth factor [hEGF]
total healing outcome (diabetic foot ulcer; 0.02% (g/g) EGF): may fail to achieve totally healing in some cases
reduction of the time required to achieve 50% healing (diabetic foot ulcer; 0.02% (g/g) or 0.04% (g/g) EGF): 2-4 weeks
results compared with 0.04% (g/g) EGF (diabetic foot ulcer; 0.03% (g/g) EGF): almost indistinguishable
total healing outcome (diabetic foot ulcer; 0.04% (g/g) EGF): all of the patients were totally healed after 12 wee
50% Healed Time, mean survival time (diabetic foot ulcer; Group-2, 0.02% (g/g) hEGF): 5.71±1.02 weeks and 5.71 weeks
50% Healed Time, median survival time (diabetic foot ulcer; Group-2, 0.02% (g/g) hEGF): 6.00 weeks
100% Healed Time, mean survival time (diabetic foot ulcer; Group-2, 0.02% (g/g) hEGF): 9.43±1.38 weeks and 9.43 weeks
100% Healed Time, median survival time (diabetic foot ulcer; Group-2, 0.02% (g/g) hEGF, limited to 12 weeks): 12.00 weeks
healing rate by the end of 12 weeks (diabetic foot ulcer; Group-2: Acetovegin 5% cream plus 0.02% (g/g) hEGF): 55%
50% Healed Time, mean survival time (diabetic foot ulcer; Group-3, 0.04% (g/g) hEGF): 4.50±0.82 weeks and 4.50 weeks
50% Healed Time, median survival time (diabetic foot ulcer; Group-3, 0.04% (g/g) hEGF): 4.00 weeks
100% Healed Time, median survival time (diabetic foot ulcer; Group-3, 0.04% (g/g) hEGF): 6.00 weeks
100% Healed Time, mean survival time (diabetic foot ulcer; Group-3, 0.04% (g/g) hEGF): 6.67 weeks
healing rate by the end of 12 weeks (diabetic foot ulcer; Group-3: Acetovegin 5% cream plus 0.04% (g/g) hEGF): 100%
100% healing time, median survival time (diabetic foot ulcer; Group-4, 0.03% (g/g) hEGF): 6 weeks
Cumulative Survival (unhealed fraction) (diabetic foot ulcer; Group-4, 0.03% (g/g) hEGF, 2 weeks): 0.8750
Cumulative Survival (unhealed fraction) (diabetic foot ulcer; Group-4, 0.03% (g/g) hEGF, 4 weeks): 0.6250
Cumulative Survival (unhealed fraction) (diabetic foot ulcer; Group-4, 0.03% (g/g) hEGF, 6 weeks): 0.5000
Cumulative Survival (unhealed fraction) (diabetic foot ulcer; Group-4, 0.03% (g/g) hEGF, 8 weeks): 0.3750
Cumulative Survival (unhealed fraction) (diabetic foot ulcer; Group-4, 0.03% (g/g) hEGF, 10 weeks): 0.2500
Cumulative Survival (unhealed fraction) (diabetic foot ulcer; Group-4, 0.03% (g/g) hEGF, 12 weeks): 0.1250
100% healing time, mean survival time (limited to 12) (diabetic foot ulcer; Group-4, Acetovegin 5% cream plus 0.03% (g/g) hEGF): 7 weeks
Healing Rate (diabetes ulcers; [2]): 36.25%
Ulcer Area (diabetes ulcers; [2]): 1.02 cm^2
Healing Rate (diabetes ulcers; [3]): 100%
Ulcer Area (diabetes ulcers; [3]): 0 cm^2
Healing Rate (diabetes ulcers; [4]): 43.18%
Ulcer Area (diabetes ulcers; [4]): 3.79 cm^2
Healing Rate (diabetes ulcers; [5]): 75.71%
Ulcer Area (diabetes ulcers; [5]): 1.62 cm^2
Healing Rate (diabetes ulcers; [6]): 97.60%
Ulcer Area (diabetes ulcers; [6]): 0.16 cm^2
Healing Rate (diabetes ulcers; [7]): 89.34%
Ulcer Area (diabetes ulcers; [7]): 1.41 cm^2
Healing Rate (diabetes ulcers; [8]): 100%
Ulcer Area (diabetes ulcers; [8]): 0 cm^2
decrease of wound area in size ([1]; 0.04% (g/g) hEGF local application, after two weeks): about 30%
reduction of wound in size ([1]; 0.04% hEGF applied locally, after 5 weeks): approximately 50%
wound outcome (bedsore): healed and completely closed
effect on wound healing of burns (burns): effective in accelerating wound healing
healing of corneal and burn wounds (corneal and burn wounds): promote healing
epithelization in wounds of patients with venous stasis ulcers (venous stasis ulcers): failed to promote epithelization
